Reference: patent US11026888B1, “Functional beverage compositions and methods of using and making same” (Nutrition Therapeutics, Inc., priority 2019, dated 2021)

How the values were obtained:
[1] = vigorous mixing with water: miscibility / solubility; assay type: physicochemical; conditions: mixed vigorously
Source text: Over time, the non-polar compounds will aggregate together and fall out of aqueous suspension. […] Beverages manufactured with only polar and non-polar substances would behave and result in a composition having an immiscible and undesirable tactile quality; pomegranate seed oil mixed with water is likely to result in a fatty or oily layer on top of the water, or with CBD, the water surface peppered with crystalline flakes. In most cases, the non-polar components are likely to adhere to the sides of the container.
(§1) For broad-based consumer success, it is desirable that a functional beverage product consistent in flavor, quality, and mouthfeel be manufacturable using an easily replicated process, and be food-safe. Immiscible components can result in material floating on the surface of the beverage, wherein the immiscible materials can shelter can promote the growth of contaminating organisms or provide localized regions survivable from pasteurizing temperatures. Additionally, such immiscible components can become a choking hazard to the unaware consumer. Non-polar compounds mix well with other non-polar compounds.

[2] = dissolving of CBD within pomegranate seed oil; assay type: physicochemical; conditions: even at refrigeration temperatures
Source text: as §1

C=C(C)[C@@H]1CCC(C)=C[C@H]1c1c(O)cc(CCCCC)cc1O [CBD, cannabidiol]
behaviour in water after vigorous mixing [1]: non-dissolving solid
dissolving within pomegranate seed oil [2]: successful dissolving
